Reference: ChEMBL document CHEMBL4342480, “Design of Dual Inhibitors of Soluble Epoxide Hydrolase and LTA4 Hydrolase” (ACS Med Chem Lett, 2020)

Experiments:
Macrophage [1] = experiment: Antiinflammatory activity in Escherichia coli O6:K2:H1-induced human M1 macrophage assessed as change in 12-HEPE level at 1 uM preincubated for 10 mins followed by Escherichia coli O6:K2:H1-stimulation and measured after 180 mins by UPLC-MS/MS analysis relative to control; format: functional
Macrophage [2] = experiment: Antiinflammatory activity in Escherichia coli O6:K2:H1-induced human M2 macrophage assessed as change in 7-HDHA level at 10 uM preincubated for 10 mins followed by Escherichia coli O6:K2:H1-stimulation and measured after 180 mins by UPLC-MS/MS analysis relative to control; format: functional
Macrophage [3] = experiment: Antiinflammatory activity in Escherichia coli O6:K2:H1-induced human M2 macrophage assessed as change in 12-HETE level at 1 uM preincubated for 10 mins followed by Escherichia coli O6:K2:H1-stimulation and measured after 180 mins by UPLC-MS/MS analysis relative to control; format: functional
Macrophage [4] = experiment: Antiinflammatory activity in Escherichia coli O6:K2:H1-induced human M1 macrophage assessed as change in PGD2 level at 10 uM preincubated for 10 mins followed by Escherichia coli O6:K2:H1-stimulation and measured after 180 mins by UPLC-MS/MS analysis relative to control; format: functional
[5] = molecular target: T1, Leukotriene A-4 hydrolase (Homo sapiens, UniProt P09960); experiment: Inhibition of (His)6 tagged human recombinant LTA4H expressed in Escherichia coli BL21(DE3) using non-fluorescent L-arginine-7-amino-4-methylcoumarine as substrate preincubated for 30 mins followed by substrate addition and measured for 30 mins by fluorescence based assay
T1 sequence (P09960 whole entry): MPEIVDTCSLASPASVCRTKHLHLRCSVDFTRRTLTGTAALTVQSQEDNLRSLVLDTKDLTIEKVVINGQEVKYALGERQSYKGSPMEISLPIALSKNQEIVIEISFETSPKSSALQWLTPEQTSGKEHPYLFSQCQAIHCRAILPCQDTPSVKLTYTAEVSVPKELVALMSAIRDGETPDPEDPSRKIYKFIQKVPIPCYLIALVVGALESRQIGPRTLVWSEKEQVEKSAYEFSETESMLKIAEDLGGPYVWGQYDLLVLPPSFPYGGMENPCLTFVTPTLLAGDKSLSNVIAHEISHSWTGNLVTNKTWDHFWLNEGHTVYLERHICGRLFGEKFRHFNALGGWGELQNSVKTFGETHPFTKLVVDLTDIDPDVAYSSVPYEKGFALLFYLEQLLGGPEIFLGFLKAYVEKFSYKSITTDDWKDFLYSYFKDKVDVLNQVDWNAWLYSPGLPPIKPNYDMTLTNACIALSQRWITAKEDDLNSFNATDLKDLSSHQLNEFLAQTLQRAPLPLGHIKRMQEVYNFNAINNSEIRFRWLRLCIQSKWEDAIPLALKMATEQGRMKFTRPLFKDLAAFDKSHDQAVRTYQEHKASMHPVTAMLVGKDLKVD

Macrophage [6] = experiment: Antiinflammatory activity in Escherichia coli O6:K2:H1-induced human M2 macrophage assessed as change in 5-HEPE level at 10 uM preincubated for 10 mins followed by Escherichia coli O6:K2:H1-stimulation and measured after 180 mins by UPLC-MS/MS analysis relative to control; format: functional
Macrophage [7] = experiment: Antiinflammatory activity in Escherichia coli O6:K2:H1-induced human M2 macrophage assessed as change in 12-HEPE level at 10 uM preincubated for 10 mins followed by Escherichia coli O6:K2:H1-stimulation and measured after 180 mins by UPLC-MS/MS analysis relative to control; format: functional
Macrophage [8] = experiment: Antiinflammatory activity in Escherichia coli O6:K2:H1-induced human M2 macrophage assessed as change in 17-HDHA level at 10 uM preincubated for 10 mins followed by Escherichia coli O6:K2:H1-stimulation and measured after 180 mins by UPLC-MS/MS analysis relative to control; format: functional
Macrophage [9] = experiment: Antiinflammatory activity in Escherichia coli O6:K2:H1-induced human M1 macrophage assessed as change in PGF2alpha level at 1 uM preincubated for 10 mins followed by Escherichia coli O6:K2:H1-stimulation and measured after 180 mins by UPLC-MS/MS analysis relative to control; format: functional
Macrophage [10] = experiment: Antiinflammatory activity in Escherichia coli O6:K2:H1-induced human M2 macrophage assessed as change in 18-HEPE level at 1 uM preincubated for 10 mins followed by Escherichia coli O6:K2:H1-stimulation and measured after 180 mins by UPLC-MS/MS analysis relative to control; format: functional
Macrophage [11] = experiment: Antiinflammatory activity in Escherichia coli O6:K2:H1-induced human M1 macrophage assessed as change in 5-HEPE level at 1 uM preincubated for 10 mins followed by Escherichia coli O6:K2:H1-stimulation and measured after 180 mins by UPLC-MS/MS analysis relative to control; format: functional
Macrophage [12] = experiment: Antiinflammatory activity in Escherichia coli O6:K2:H1-induced human M1 macrophage assessed as change in 12-HEPE level at 10 uM preincubated for 10 mins followed by Escherichia coli O6:K2:H1-stimulation and measured after 180 mins by UPLC-MS/MS analysis relative to control; format: functional
Macrophage [13] = experiment: Antiinflammatory activity in Escherichia coli O6:K2:H1-induced human M1 macrophage assessed as change in 5.15-dlHETE level at 1 uM preincubated for 10 mins followed by Escherichia coli O6:K2:H1-stimulation and measured after 180 mins by UPLC-MS/MS analysis relative to control; format: functional
Macrophage [14] = experiment: Antiinflammatory activity in Escherichia coli O6:K2:H1-induced human M2 macrophage assessed as change in 5-HETE level at 10 uM preincubated for 10 mins followed by Escherichia coli O6:K2:H1-stimulation and measured after 180 mins by UPLC-MS/MS analysis relative to control; format: functional
Macrophage [15] = experiment: Antiinflammatory activity in Escherichia coli O6:K2:H1-induced human M2 macrophage assessed as change in 5.15-dlHETE level at 1 uM preincubated for 10 mins followed by Escherichia coli O6:K2:H1-stimulation and measured after 180 mins by UPLC-MS/MS analysis relative to control; format: functional
Macrophage [16] = experiment: Antiinflammatory activity in Escherichia coli O6:K2:H1-induced human M2 macrophage assessed as change in total LTB4 level at 1 uM preincubated for 10 mins followed by Escherichia coli O6:K2:H1-stimulation and measured after 180 mins by UPLC-MS/MS analysis relative to control; format: functional
Macrophage [17] = experiment: Antiinflammatory activity in Escherichia coli O6:K2:H1-induced human M1 macrophage assessed as change in 12-HETE level at 10 uM preincubated for 10 mins followed by Escherichia coli O6:K2:H1-stimulation and measured after 180 mins by UPLC-MS/MS analysis relative to control; format: functional
Macrophage [18] = experiment: Antiinflammatory activity in Escherichia coli O6:K2:H1-induced human M1 macrophage assessed as change in 14-HDHA level at 10 uM preincubated for 10 mins followed by Escherichia coli O6:K2:H1-stimulation and measured after 180 mins by UPLC-MS/MS analysis relative to control; format: functional
Macrophage [19] = experiment: Antiinflammatory activity in Escherichia coli O6:K2:H1-induced human M2 macrophage assessed as change in 5.15-dlHETE level at 10 uM preincubated for 10 mins followed by Escherichia coli O6:K2:H1-stimulation and measured after 180 mins by UPLC-MS/MS analysis relative to control; format: functional

IC50 [5]: 200 nM
Compound: O=C(Cc1ccc(Oc2nc3ccccc3s2)cc1F)NCCc1ccc(F)cc1
Activity (Macrophage [1]): 95% | Activity (Macrophage [2]): 77% | Activity (Macrophage [3]): 87% | Activity (Macrophage [4]): 97% | Activity (Macrophage [6]): 97% | Activity (Macrophage [7]): 105% | Activity (Macrophage [8]): 135% | Activity (Macrophage [9]): 94% | Activity (Macrophage [10]): 86% | Activity (Macrophage [11]): 102% | Activity (Macrophage [12]): 113% | Activity (Macrophage [13]): 152% | Activity (Macrophage [14]): 44% | Activity (Macrophage [15]): 93% | Activity (Macrophage [16]): 83% | Activity (Macrophage [17]): 131% | Activity (Macrophage [18]): 114% | Activity (Macrophage [19]): 101%
